In one series the target is T1, aldose reductase (Bos taurus, UniProt P16116).
T1 construct: preparation of the enzyme from bovine lens; from tissue; host or cells: bovine lens
The series can be described thus: In vitro inhibition of aldose reductase from bovine lens (modified Hayman and Kinoshita procedure). It counts as biochemical. As to conditions: 10^-7 M; enzyme from bovine lens. The protocol:
Only two minor reagent changes were made: (a) The rinsing mixture was an aqueous 5% (w/v) trichloroacetic acid solution and (b) the stock solution was prepared by dissolving 25 mg of dulcitol in 100 mL of an aqueous trichloroacetic acid solution. [N.B.: For each experiment the average value found in the tissue from rats fed the glucose diet was subtracted from the individual values found in the corresponding tissue in galactose-fed rats to obtain the amount of polyol accumulated.] […] In the present case the procedure of Hayman and Kinoshita was modified in that the final chromatography step was omitted in the preparation of the enzyme from bovine lens.

Series [1] relates to galactitol accumulation in the lenses and sciatic nerves. Description: In vivo lowering of dulcitol (galactitol) accumulation in galactosemic rats. As to conditions: for effect on accumulation of galactitol in the lenses and sciatic nerves (in words): rats fed galactose. Details: species or system rat (male, Sprague-Dawley). An excerpt:
The aldose reductase inhibiting property of the compounds of this invention and the utilization of the compounds in preventing, diminishing and alleviating diabetic complications are demonstrable in experiments using galactosemic rats, see Dvornik et al, cited above. Such experiments are exemplified hereinbelow after the listing of the following general comments pertaining to these experiments:
(a) Four or more groups of six male rats, 50-70 g, Sprague-Dawley strain, were used. The first group, the control group, was fed a mixture of laboratory chow (rodent Laboratory Chow, Purina) and glucose at 20% (w/w %) concentration. The untreated galactosemic group and the drug-treated groups were fed a similar diet in which galactose is substituted for glucose. The test compound was either admixed to the diet or administered by gavage. In experiments involving compound administration in the diet, the average dose administered was calculated from the actual food intake of the animals in each group. The concentration of galactose in the diet of the treated groups was the same as that for the untreated galactosemic group.
(b) After four days, the animals were killed by decapitation. The eyeballs were removed and punctured with a razor blade; the freed lenses were rolled gently on filter paper and weighed. The sciatic nerves were dissected as completely as possible and weighed. Both tissues when frozen can be kept up to two weeks before being analyzed for galactitol.
(c) The polyol determination was performed by a modification of the procedure of M. Kraml and L. Cosyns, Clin. Biochem., 2, 373 (1969). Only two minor reagent changes were made: (a) The rinsing mixture was an aqueous 5% (w/v) trichloroacetic acid solution and (b) the stock solution was prepared by dissolving 25 mg of dulcitol in 100 mL of an aqueous trichloroacetic acid solution. [N.B.: For each experiment the average value found in the tissue from rats fed the glucose diet was subtracted from the individual values found in the corresponding tissue in galactose-fed rats to obtain the amount of polyol accumulated.] The aldose reductase inhibiting effects of the compounds of formula (I) were also tested by employing an in vitro testing procedure similar to that described by S. Hayman and J. H. Kinoshita, J. Biol. Chem., 240, 877 (1965). In the present case the procedure of Hayman and Kinoshita was modified in that the final chromatography step was omitted in the preparation of the enzyme from bovine lens.
The figures under L and N represent the percentage decrease of galactitol accumulation in the tissues of the lens and sciatic nerve, respectively, for treated rats as compared to untreated rats.

Series [2] in a line: Metabolites of tolrestat found in humans and other mammals. The series is classed as in vivo.
Where [3] appears, read: lens, 50 mg/kg/day, gavage (same experiment), four days.
The mark [4] stands for this setting: sciatic nerve, 50 mg/kg/day, gavage (same experiment), four days.

This is an account of results in patent publication US4734435A, “N-[[6-methoxy-5-(trifluoromethyl)-1-naphthalenyl]-thioxome thyl]-N-methylglycine S-oxide and the amide thereof” (American Home Products Corp., priority 1986, dated 1988).

`COc1ccc2c(C(=S=O)N(C)CC(=O)O)cccc2c1C(F)(F)F` [N-[[6-Methoxy-5-(trifluoromethyl)-1-naphthalenyl]thioxomethyl]-N-methylglycine S-oxide]: 0.1 µM produced 80% inhibition against aldose reductase. Moreover, in series [1] (at a dose of 50 mg/kg/day), the “comparison with tolrestat at 10 mg/kg/day (in words)” value is reported as “comparable results”. The “% lowering dulcitol accumulation in vivo, L (lens)” value turned out to be 0% in series [1] (lens, 20 mg/kg/day, diet, four days); 0% in series [1] (setting [3]); 20% in series [1] (lens, 115 mg/kg/day, diet, four days). In series [1], the “effect on accumulation of galactitol in the lenses and sciatic nerves (in words)” value is “diminish the accumulation of galactitol in the lenses and sciatic nerves of rats fed galactose”. Further, the “% lowering dulcitol accumulation in vivo, N (sciatic nerve)” value was 45% in series [1] (sciatic nerve, 20 mg/kg/day, diet, four days); 70% in series [1] (setting [4]); 100% in series [1] (sciatic nerve, 115 mg/kg/day, diet, four days). For the same molecule, in series [2], the “occurrence as metabolite of tolrestat (in words)” value was “one of the metabolites of tolrestat found in humans and other mammals”.
On to `COc1ccc2c(C(=S)N(C)CC(=O)O)cccc2c1C(F)(F)F` [tolrestat, N-[[6-methoxy-5-(trifluoromethyl)-1-naphthalenyl]thioxomethyl]-N-methylglycine, reference compound], for which the “% lowering dulcitol accumulation in vivo, L (lens)” value in series [1] (lens, 10 mg/kg/day, gavage (same experiment), four days) stood at 0%. In addition, the “% lowering dulcitol accumulation in vivo, N (sciatic nerve)” value in series [1] (sciatic nerve, 10 mg/kg/day, gavage (same experiment), four days) turned out to be 81%.
Molecule `COc1ccc2c(C(=S=O)N(C)CC(N)=O)cccc2c1C(F)(F)F` [[[[6-Methoxy-5-(trifluoromethyl)-1-naphthalenyl]thioxomethyl]methylamino]-acetamide S-oxide] yielded an inhibition at 0.1 µM at aldose reductase of 3%. Moreover, the “% lowering dulcitol accumulation in vivo, L (lens)” value in series [1] (58 mg/kg/day, 96 h) is listed as 0%; in series [1] (lens, 12 mg/kg/day, mode of administration not given, four days) it was 0%. Moreover, the “% lowering dulcitol accumulation in vivo, N (sciatic nerve)” value came out at 77% in series [1] (58 mg/kg/day, 96 h) and 45% in series [1] (sciatic nerve, 12 mg/kg/day, mode of administration not given, four days). The “comparison with tolrestat at 10 mg/kg/day (in words)” value in series [1] (at a dose of 58 mg/kg/day) is given as “comparable results”. In series [1], the “effect on accumulation of galactitol in the lenses and sciatic nerves (in words)” value is “diminish the accumulation of galactitol in the lenses and sciatic nerves of rats fed galactose”.
In the case of `COc1ccc2c(C(=O)N(C)CC(=O)O)cccc2c1C(F)(F)F` [N--[[6-methoxy-5-(trifluoromethyl)-1-naphthalenyl]carbonyl]-N--methylglycine, reference compound], in series [1] (setting [3]), the “% lowering dulcitol accumulation in vivo, L (lens)” value amounted to 0%. In addition, in series [1] (setting [4]), the “% lowering dulcitol accumulation in vivo, N (sciatic nerve)” value came to 59%.

The inhibition is the drop in the measured response relative to a control, in per cent. Higher therefore signals a response far below the control.
